Reference: ChEMBL document CHEMBL1153972, “Solution studies on the complex of 4'-epiadriamycin-d-(CGATCG)2 followed by time-resolved fluorescence measurement, diffusion ordered spectroscopy and restrained molecular dynamics simulations” (Bioorg Med Chem, 2009)
Calls of active or inactive are those of the source. The rule behind the calls is not given here.

What was measured:
Format in all cases: nucleic-acid assay
Nucleic Acid [1] = test: Binding affinity to DNA d-(CGATCG)2 by NMR study
Nucleic Acid [2] = test: Binding affinity to DNA d-(CGATCG)2 at drug to DNA ratio of 2:1 by time resolved fluorescence measurements
Nucleic Acid [3] = test: Binding affinity to DNA d-(CGATCG)2 at drug to DNA ratio of 2:1 by 2D NOESY experiment
Nucleic Acid [4] = test: Binding affinity to DNA d-(CGATCG)2 assessed as rate of diffusion by diffusion ordered spectroscopy study

- Activity (Nucleic Acid [1]): Active
- Activity (Nucleic Acid [2]): Active
- Activity (Nucleic Acid [4]): Active
Structure (SMILES): COc1cccc2c1C(=O)c1c(O)c3c(c(O)c1C2=O)C[C@@](O)(C(=O)CO)C[C@@H]3O[C@H]1C[C@H](N)[C@@H](O)[C@H](C)O1
- Activity (Nucleic Acid [3]): Active
